Common to all, as to assay: growth of human tumour cells (NCI), 48 h
The subject of assay [1] is 786-0 renal.
The test system of assay [2] is DU-145 prostate.
Assay [3] relates to SNB-75 CNS.
For assay [4], the system named is ACHN renal.
The subject of assay [5] is MOLT-4 leukemia.
Assay [6] concerns OVCAR-4 ovarian.
In assay [7] the test system is SK-MEL-5 melanoma.
Assay [8] relates to SK-MEL-2 melanoma.
The test system of assay [9] is SF-268 CNS.
For assay [10], the system named is UACC-62 melanoma.

This is an account of results in PubChem BioAssay (NCI).

Structures are written as SMILES. “And” between values parts separate entries of the source, which are not always exact repeats. Equal entries are not always repeated.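 Grown in 96-well plates, cells were treated for 48 hours with each compound at five concentrations. Insufficient inhibition: endpoint recorded as highest concentration tested. The concentration for 50% growth inhibition is given as GI50. TGI denotes the concentration required for complete inhibition of growth.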 Bounds are passed on as bounds.

As to `Cc1cn2c(/C=N/N=C(N)N)c(-c3ccccn3)nc2s1`, the GI50 in assay [1] is 6.56 µM; in assay [2] it was 10.5 µM; in assay [3], 7.66 µM; in assay [4] it was 21.8 µM; in assay [5], 8.67 µM; in [6] it was 15.2 µM. Further, the GI50 in assay [7] was 7.95 µM; in assay [8], 14 µM; in assay [9], 8.62 µM; in assay [10], 15.9 µM. The TGI is 17.9 µM in [1]; 37.7 µM in [2]; 19.3 µM in assay [3]; 51.7 µM in [4]; above 100 µM in [5]; 40.1 µM in [6]. Further, the TGI in [7] came to 25.8 µM; in [8] it was 48.1 µM; in assay [9], 45.4 µM; in assay [10] it was 31.6 µM.
Turning to `C=C(CO)[C@@H]1CC[C@]2(COC3CCCCO3)CC[C@]3(C)[C@H](CC[C@@H]4[C@@]5(C)C=C(C=O)C(=O)C(C)(C)[C@@H]5CC[C@]43C)[C@@H]12` (some centres undefined), the GI50 is 0.185 µM in [1]; 0.523 µM in assay [2]; 0.206 µM in assay [3]; 0.21 µM in assay [4]; 0.307 µM in [5]; 0.298 µM in assay [6]. The GI50 was 0.38 µM in assay [7], 0.448 µM in assay [8], 0.297 µM in [9] and 0.177 µM in [10]. In addition, the TGI in assay [1] is 0.406 µM; in assay [2], 1.72 µM; in [3] it was 0.625 µM; in [4], 0.488 µM; in assay [5], 1.21 µM; in assay [6], 0.979 µM. The TGI in assay [7] was found to be 1.46 µM; in assay [8] it was 1.82 µM; in assay [9] it was 0.979 µM; in assay [10] it was 0.386 µM.
`CN1CCN(c2ccc(NC(=O)c3cncnc3Nc3ccc(OCc4ccccn4)c(Cl)c3)cc2)CC1`: the GI50 is 0.763 µM in assay [1]; 4.28 µM in assay [2]; 4.58 µM in assay [3]; 3.77 µM in [4]; 1.64 µM in assay [5]; 4.69 µM in assay [6]. The GI50 in [7] was 1.77 µM; in assay [8], 4.74 µM; in assay [9] it was 5.03 µM; in assay [10], 0.695 µM. Moreover, the TGI in [1] is 1.68 µM; in assay [2], 8.8 µM; in [3] it was 9.23 µM; in assay [4], 7.87 µM; in [5] it was 9.42 µM; in assay [6], 12.4 µM. Besides, the TGI in [7] stood at 6.01 µM; in assay [8], 11 µM; in [9] it was 11.2 µM; in [10], 1.42 µM.
`N#Cc1c(N)nc(N2CCOCC2)c(C#N)c1-c1ccccn1`: the GI50 in assay [1] is above 100 µM; in assay [2], above 100 µM; in [3], above 88.5 µM; in [4] it was above 100 µM; in assay [5], above 100 µM; in [6], above 100 µM. For the same molecule, the GI50 is above 100 µM in assay [7], above 100 µM in [8], above 100 µM in [9] and 0.0342 µM in assay [10]. Besides, the TGI in assay [1], in [2], in assay [3], in [4], in [5] and in assay [6] was above 100 µM each time. Further, the TGI in [7] was above 100 µM; in [8], above 100 µM; in assay [9] it was above 100 µM; in assay [10], 0.482 µM.
For `CCN(CC)C(=S)SCN1C(=O)c2ccccc2S1(=O)=O`, the GI50 was 31.4 µM in [1]; 29.4 µM in [2]; 46.7 µM in assay [3]; 64.6 µM in [4]; 23.9 µM in assay [5]; 35.4 µM in assay [6]. The GI50 was 6.67 µM in assay [7], above 94.4 µM in assay [8], 34.2 µM in assay [9] and 3.02 µM in [10]. For the same molecule, the TGI in [1] is above 100 µM; in assay [2], above 100 µM; in assay [3], above 91.5 µM; in assay [4], above 100 µM; in [5], above 100 µM; in assay [6], above 100 µM. Also, the TGI in assay [7], in assay [8] and in assay [9] was above 100 µM each time.
Consider `COC(=O)c1cc2c3ccccc3[nH]c2c2sccc12`, for which the GI50 is 13.8 µM in assay [1]; 19.7 µM in assay [2]; 19 µM in assay [3]; 13.6 µM in assay [4]; 15.7 µM in assay [5]; 26.5 µM in assay [6]. Further, the GI50 is 16.3 µM in [7], 40.8 µM in assay [8], 32.4 µM in [9] and 22.3 µM in assay [10]. Besides, the TGI is 40.7 µM in [1]; 66.5 µM in assay [2]; 70.6 µM in assay [3]; above 100 µM in assay [4]; above 100 µM in assay [5]; 76.9 µM in [6]. For the same molecule, the TGI was 35.4 µM in [7], above 100 µM in [8], above 100 µM in assay [9] and above 100 µM in assay [10].
For `CCOC(=O)c1cc(-c2ccccc2)[nH]c1N/N=C/c1ccc(Cl)cc1`, the GI50 in [1] is 50.4 µM; in assay [2], above 100 µM; in assay [3] it was above 100 µM; in [4], above 100 µM; in assay [5], 16.8 µM; in assay [6], 70.9 µM. Besides, the GI50 in [7] was 28.4 µM; in [8], 62.6 µM; in assay [9] it was above 100 µM; in assay [10], 49.7 µM. Further, the TGI in assay [1], in [2], in assay [3], in [4], in assay [5] and in assay [6] was above 100 µM in each case. In addition, the TGI in [7], in [8], in assay [9] and in assay [10] was above 100 µM each time.
For `Cc1ccc(NS(=O)(=O)c2cccc(C#N)c2)c2[nH]cc(C#N)c12`, the GI50 in assay [1] was 12 µM and 7.67 µM; in assay [2], 23.9 µM and 28.8 µM; in [3], 6.51 µM and 7.05 µM; in assay [4] it was 12.6 µM and 16.3 µM; in [5], 8.87 µM and 13.6 µM; in assay [6] it was 2.65 µM and 8.22 µM. The GI50 in assay [7] is 15.6 µM and 17 µM; in [8] it was 22.5 µM and 15.1 µM; in assay [9] it was 35 µM and 30.9 µM; in [10], 7.07 µM and 15.4 µM. Besides, the TGI in assay [1] is 55.7 µM and > 100 µM; in assay [2], above 100 µM; in assay [3], 52.3 µM and 29.4 µM; in [4], > 96.7 µM and 98.3 µM; in [5], above 100 µM; in assay [6], 87.2 µM and 51.2 µM. Besides, the TGI in [7] is 33.5 µM and 43.3 µM; in assay [8] it was 59.7 µM and 52.4 µM; in [9], above 100 µM; in [10], 32.2 µM and 53.2 µM.
In the case of `CC(=[N-])N1CCC[C@@H](Nc2c3ccccc3nc3ccccc23)C1.[Cl][Pt].[NH-]CCC[NH-]`, the GI50 was 3.89 µM in assay [1]; 0.0326 µM in assay [2]; 2.72 µM in [3]; 0.159 µM in assay [4]; 0.359 µM in [5]; 1.25 µM in assay [6]. Besides, the GI50 is 0.127 µM in assay [7], 2.28 µM in assay [8], 3.68 µM in [9] and 0.0295 µM in assay [10]. The TGI is above 24.8 µM in assay [1]; above 100 µM in [2]; 10.1 µM in assay [3]; 2.47 µM in assay [4]; above 100 µM in [5]; 38.9 µM in [6]. Further, the TGI in [7] was 0.291 µM; in [8], 7.23 µM; in assay [9], above 100 µM; in assay [10], 0.114 µM.
